Source: patent publication US8952024B2, “Herbicidal pyrimidone derivatives” (E I du Pont de Nemours and Company, priority 2009, dated 2015)

Experiments:
Type in all cases: in vivo
[1] = tested on: barnyardgrass (Echinochloa crus-galli); assay: Test A pre-/postemergence plant response
In short: (§1)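 Greenhouse trial, ~10 days. Soil (loam/sand) sprayed preemergence after seeding; emerged plants (1–2 leaf, 2–10 cm) sprayed postemergence in parallel. Response = visual injury vs untreated control, 0–100.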

corn (Zea mays) = assay: Test A pre-/postemergence plant response
In short: as §1

[2] = tested on: giant foxtail (Setaria faberii); assay: Test A pre-/postemergence plant response
In short: as §1

[3] = tested on: large crabgrass (Digitaria sanguinalis); assay: Test A pre-/postemergence plant response
In short: as §1

[4] = tested on: morningglory (Ipomoea spp.); assay: Test A pre-/postemergence plant response
In short: as §1

[5] = tested on: pigweed (Amaranthus retroflexus); assay: Test A pre-/postemergence plant response
In short: as §1

[6] = tested on: velvetleaf (Abutilon theophrasti); assay: Test A pre-/postemergence plant response
In short: as §1

[7] = tested on: wheat (Triticum aestivum); assay: Test A pre-/postemergence plant response
In short: as §1

[8] = tested on: barnyardgrass (Echinochloa crus-galli); assay: Test B flooded paddy test; settings: for Plant response rating, Flood, Barnyardgrass: 250 g ai/ha, flooded paddy test, visual rating on 0 to 100 scale (0 no effect, 100 complete control) after 13 to 15 days; for Plant response rating, Barnyardgrass: Flood (flooded paddy test), 13 to 15 days
In short: (§2)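 Rice, umbrella sedge, ducksalad and barnyardgrass were grown to the 2-leaf stage, flooded to 3 cm, and compound was applied directly to the paddy water, with that depth kept throughout. After 13 to 15 days in the greenhouse, plants were visually rated against controls on a 0 (no effect) to 100 (complete control) scale.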

[9] = tested on: ducksalad (Heteranthera limosa); assay: Test B flooded paddy test; settings: for Plant response rating, Flood, Ducksalad: 250 g ai/ha, flooded paddy test, visual rating on 0 to 100 scale (0 no effect, 100 complete control) after 13 to 15 days; for Plant response rating, Ducksalad: Flood (flooded paddy test), 13 to 15 days
In short: as §2

rice (Oryza sativa) = assay: Test B flooded paddy test; settings: for Plant response rating, Flood, Rice: 250 g ai/ha, flooded paddy test, visual rating on 0 to 100 scale (0 no effect, 100 complete control) after 13 to 15 days; for Plant response rating, Rice: Flood (flooded paddy test), 13 to 15 days
In short: as §2

[10] = tested on: umbrella sedge (Cyperus difformis); assay: Test B flooded paddy test; settings: for Plant response rating, Flood, Sedge, Umbrella: 250 g ai/ha, flooded paddy test, visual rating on 0 to 100 scale (0 no effect, 100 complete control) after 13 to 15 days; for Plant response rating, Sedge, Umbrella: Flood (flooded paddy test), 13 to 15 days
In short: as §2

[11] = Postemergence, 125 g ai/ha, visual injury, 0 to 100 scale (0 no effect, 100 complete control), approx. ten days
[12] = Postemergence, 500 g ai/ha, 0 to 100 scale, 0 = no effect, 100 = complete control, approx. ten days
[13] = Preemergence, 125 g ai/ha, 0 to 100 scale, 0 = no effect, 100 = complete control
[14] = Preemergence, 500 g ai/ha, visual injury, 0 to 100 scale (0 no effect, 100 complete control), approx. ten days
[15] = 31 g ai/ha, scale of 0 to 100 where 0 is no effect and 100 is complete control
[16] = 62 g ai/ha, scale of 0 to 100 where 0 is no effect and 100 is complete control
[17] = 125 g ai/ha, scale 0 to 100, 0 is no effect, 100 is complete control
[18] = 62 g ai/ha, scale 0 to 100, 0 is no effect, 100 is complete control
[19] = Postemergence, 125 g ai/ha, 0 to 100 scale where 0 is no effect and 100 is complete control
[20] = Postemergence, 500 g ai/ha, visual injury, 0 to 100 scale (0 no effect, 100 complete control), approx. ten days
[21] = Preemergence, 125 g ai/ha, 0 to 100 scale where 0 is no effect and 100 is complete control, approximately ten days
[22] = Preemergence, 500 g ai/ha, 0 to 100 scale, 0 = no effect, 100 = complete control
[23] = Flood, 31 g ai/ha, scale 0 to 100 (0 no effect, 100 complete control)

## Cn1c(-c2ccccc2)ncc(C(=O)C2=C(O)CCCC2=O)c1=O [Compound 55]
[1]; [11]
  Barnyardgrass plant response rating: 50
[1]; [12]
  Plant response rating, Barnyardgrass: 70
[1]; [13]
  Plant response rating, Barnyardgrass: 0
[1]; [14]
  Plant response rating, Barnyardgrass: 10
Corn (Zea mays); [11]
  Corn plant response rating: 0
Corn (Zea mays); [12]
  Plant response rating, Corn: 10
Corn (Zea mays); [13]
  Plant response rating, Corn: 0
Corn (Zea mays); [14]
  Plant response rating, Corn: 0
[2]; [11]
  Foxtail, Giant plant response rating: 20
[2]; [12]
  Plant response rating, Foxtail, Giant: 60
[2]; [13]
  Plant response rating, Foxtail, Giant: 0
[2]; [14]
  Plant response rating, Foxtail, Giant: 0
[3]; [11]
  Crabgrass, Large plant response rating: 70
[3]; [12]
  Plant response rating, Crabgrass, Large: 90
[3]; [13]
  Plant response rating, Crabgrass, Large: 0
[3]; [14]
  Plant response rating, Crabgrass, Large: 50
[4]; [11]
  Morningglory plant response rating: 90
[4]; [12]
  Plant response rating, Morningglory: 90
[4]; [13]
  Plant response rating, Morningglory: 30
[4]; [14]
  Plant response rating, Morningglory: 60
[5]; [11]
  Pigweed plant response rating: 90
[5]; [12]
  Plant response rating, Pigweed: 100
[5]; [13]
  Plant response rating, Pigweed: 50
[5]; [14]
  Plant response rating, Pigweed: 100
[6]; [11]
  Velvetleaf plant response rating: 100
[6]; [12]
  Plant response rating, Velvetleaf: 100
[6]; [13]
  Plant response rating, Velvetleaf: 60
[6]; [14]
  Plant response rating, Velvetleaf: 60
[7]; [11]
  Wheat plant response rating: 0
[7]; [12]
  Plant response rating, Wheat: 0
[7]; [13]
  Plant response rating, Wheat: 0
[7]; [14]
  Plant response rating, Wheat: 0
[8]
  Plant response rating, Flood, Barnyardgrass: 20
[8]; [15]
  Plant response rating, Barnyardgrass: 0
[8]; [16]
  Plant response rating, Barnyardgrass: 20
[8]; [17]
  Plant response rating, Barnyardgrass: 20
[9]
  Plant response rating, Flood, Ducksalad: 50
[9]; [15]
  Plant response rating, Ducksalad: 0
[9]; [16]
  Plant response rating, Ducksalad: 0
[9]; [17]
  Plant response rating, Ducksalad: 0
Rice (Oryza sativa)
  Plant response rating, Flood, Rice: 25
Rice (Oryza sativa); [15]
  Plant response rating, Rice: 0
Rice (Oryza sativa); [16]
  Plant response rating, Rice: 10
Rice (Oryza sativa); [17]
  Plant response rating, Rice: 15
[10]
  Plant response rating, Flood, Sedge, Umbrella: 60
[10]; [15]
  Plant response rating, Sedge, Umbrella: 0
[10]; [16]
  Plant response rating, Sedge, Umbrella: 30
[10]; [17]
  Plant response rating, Sedge, Umbrella: 40

## 5-[(2-hydroxy-6-oxo-1-cyclohexen-1-yl)carbonyl]-2,3-diphenyl-4(3H)-pyrimidinone [Compound 2]
[1]; [11]
  Barnyardgrass plant response rating: 20
[1]; [12]
  Plant response rating, Barnyardgrass: 60
[1]; [13]
  Plant response rating, Barnyardgrass: 0
[1]; [14]
  Plant response rating, Barnyardgrass: 10
Corn (Zea mays); [11]
  Corn plant response rating: 0
Corn (Zea mays); [12]
  Plant response rating, Corn: 0
Corn (Zea mays); [13]
  Plant response rating, Corn: 0
Corn (Zea mays); [14]
  Plant response rating, Corn: 0
[2]; [11]
  Foxtail, Giant plant response rating: 10
[2]; [12]
  Plant response rating, Foxtail, Giant: 40
[2]; [13]
  Plant response rating, Foxtail, Giant: 0
[2]; [14]
  Plant response rating, Foxtail, Giant: 10
[3]; [11]
  Crabgrass, Large plant response rating: 50
[3]; [12]
  Plant response rating, Crabgrass, Large: 80
[3]; [13]
  Plant response rating, Crabgrass, Large: 10
[3]; [14]
  Plant response rating, Crabgrass, Large: 70
[4]; [11]
  Morningglory plant response rating: 70
[4]; [12]
  Plant response rating, Morningglory: 90
[4]; [14]
  Plant response rating, Morningglory: 50
[5]; [11]
  Pigweed plant response rating: 70
[5]; [12]
  Plant response rating, Pigweed: 80
[5]; [13]
  Plant response rating, Pigweed: 20
[5]; [14]
  Plant response rating, Pigweed: 100
[6]; [11]
  Velvetleaf plant response rating: 100
[6]; [12]
  Plant response rating, Velvetleaf: 100
[6]; [13]
  Plant response rating, Velvetleaf: 60
[6]; [14]
  Plant response rating, Velvetleaf: 80
[7]; [11]
  Wheat plant response rating: 10
[7]; [12]
  Plant response rating, Wheat: 20
[7]; [13]
  Plant response rating, Wheat: 0
[7]; [14]
  Plant response rating, Wheat: 0
[8]
  Plant response rating, Flood, Barnyardgrass: 0
[8]; [15]
  Plant response rating, Barnyardgrass: 0
[8]; [18]
  Plant response rating, Barnyardgrass: 0
[8]; [17]
  Plant response rating, Barnyardgrass: 0
[9]
  Plant response rating, Flood, Ducksalad: 0
[9]; [15]
  Plant response rating, Ducksalad: 0
[9]; [18]
  Plant response rating, Ducksalad: 0
[9]; [17]
  Plant response rating, Ducksalad: 0
Rice (Oryza sativa)
  Plant response rating, Flood, Rice: 0
Rice (Oryza sativa); [15]
  Plant response rating, Rice: 0
Rice (Oryza sativa); [18]
  Plant response rating, Rice: 0
Rice (Oryza sativa); [17]
  Plant response rating, Rice: 0
[10]
  Plant response rating, Flood, Sedge, Umbrella: 0
[10]; [15]
  Plant response rating, Sedge, Umbrella: 0
[10]; [18]
  Plant response rating, Sedge, Umbrella: 0
[10]; [17]
  Plant response rating, Sedge, Umbrella: 0

## CCCCn1c(-c2cc(F)cc(F)c2)ncc(C(=O)C2=C(O)C3CCC(C3)C2=O)c1=O (centres unmarked) [Compound 245]
[1]; [19]
  Plant response rating, Barnyardgrass: 90
[1]; [20]
  Barnyardgrass plant response rating: 100
[1]; [21]
  Plant response rating, Barnyardgrass: 40
[1]; [22]
  Plant response rating, Barnyardgrass: 100
Corn (Zea mays); [19]
  Plant response rating, Corn: 40
Corn (Zea mays); [20]
  Corn plant response rating: 90
Corn (Zea mays); [21]
  Plant response rating, Corn: 0
Corn (Zea mays); [22]
  Plant response rating, Corn: 20
[2]; [11]
  Plant response rating, Foxtail, Giant: 100
[2]; [20]
  Foxtail, Giant plant response rating: 100
[2]; [21]
  Plant response rating, Foxtail, Giant: 80
[2]; [22]
  Plant response rating, Foxtail, Giant: 90
[3]; [19]
  Plant response rating, Crabgrass, Large: 90
[3]; [20]
  Crabgrass, Large plant response rating: 90
[3]; [21]
  Plant response rating, Crabgrass, Large: 80
[3]; [22]
  Plant response rating, Crabgrass, Large: 100
[4]; [11]
  Plant response rating, Morningglory: 100
[4]; [20]
  Morningglory plant response rating: 100
[4]; [21]
  Plant response rating, Morningglory: 20
[4]; [22]
  Plant response rating, Morningglory: 60
[5]; [11]
  Plant response rating, Pigweed: 100
[5]; [20]
  Pigweed plant response rating: 100
[5]; [21]
  Plant response rating, Pigweed: 80
[5]; [22]
  Plant response rating, Pigweed: 90
[6]; [11]
  Plant response rating, Velvetleaf: 100
[6]; [20]
  Velvetleaf plant response rating: 100
[6]; [21]
  Plant response rating, Velvetleaf: 70
[6]; [22]
  Plant response rating, Velvetleaf: 100
[7]; [11]
  Plant response rating, Wheat: 40
[7]; [20]
  Wheat plant response rating: 80
[7]; [21]
  Plant response rating, Wheat: 0
[7]; [22]
  Plant response rating, Wheat: 20
[8]
  Plant response rating, Flood, Barnyardgrass: 65
[8]; [16]
  Plant response rating, Barnyardgrass: 0
[8]; [17]
  Plant response rating, Barnyardgrass: 40
[8]; [23]
  Barnyardgrass plant response rating: 0
[9]
  Plant response rating, Flood, Ducksalad: 100
[9]; [16]
  Plant response rating, Ducksalad: 100
[9]; [17]
  Plant response rating, Ducksalad: 100
[9]; [23]
  Ducksalad plant response rating: 100
Rice (Oryza sativa)
  Plant response rating, Flood, Rice: 90
Rice (Oryza sativa); [16]
  Plant response rating, Rice: 50
Rice (Oryza sativa); [17]
  Plant response rating, Rice: 50
Rice (Oryza sativa); [23]
  Rice plant response rating: 50
[10]
  Plant response rating, Flood, Sedge, Umbrella: 100
[10]; [16]
  Plant response rating, Sedge, Umbrella: 100
[10]; [17]
  Plant response rating, Sedge, Umbrella: 100
[10]; [23]
  Sedge, Umbrella plant response rating: 60
